Key:
HDAC6 = target: T1, HDAC6 (Homo sapiens, UniProt Q9UBN7); assay: Recombinant HDAC1 and HDAC6 selective inhibitory potency; format: biochemical
T1 sequence (Q9UBN7 1-1215): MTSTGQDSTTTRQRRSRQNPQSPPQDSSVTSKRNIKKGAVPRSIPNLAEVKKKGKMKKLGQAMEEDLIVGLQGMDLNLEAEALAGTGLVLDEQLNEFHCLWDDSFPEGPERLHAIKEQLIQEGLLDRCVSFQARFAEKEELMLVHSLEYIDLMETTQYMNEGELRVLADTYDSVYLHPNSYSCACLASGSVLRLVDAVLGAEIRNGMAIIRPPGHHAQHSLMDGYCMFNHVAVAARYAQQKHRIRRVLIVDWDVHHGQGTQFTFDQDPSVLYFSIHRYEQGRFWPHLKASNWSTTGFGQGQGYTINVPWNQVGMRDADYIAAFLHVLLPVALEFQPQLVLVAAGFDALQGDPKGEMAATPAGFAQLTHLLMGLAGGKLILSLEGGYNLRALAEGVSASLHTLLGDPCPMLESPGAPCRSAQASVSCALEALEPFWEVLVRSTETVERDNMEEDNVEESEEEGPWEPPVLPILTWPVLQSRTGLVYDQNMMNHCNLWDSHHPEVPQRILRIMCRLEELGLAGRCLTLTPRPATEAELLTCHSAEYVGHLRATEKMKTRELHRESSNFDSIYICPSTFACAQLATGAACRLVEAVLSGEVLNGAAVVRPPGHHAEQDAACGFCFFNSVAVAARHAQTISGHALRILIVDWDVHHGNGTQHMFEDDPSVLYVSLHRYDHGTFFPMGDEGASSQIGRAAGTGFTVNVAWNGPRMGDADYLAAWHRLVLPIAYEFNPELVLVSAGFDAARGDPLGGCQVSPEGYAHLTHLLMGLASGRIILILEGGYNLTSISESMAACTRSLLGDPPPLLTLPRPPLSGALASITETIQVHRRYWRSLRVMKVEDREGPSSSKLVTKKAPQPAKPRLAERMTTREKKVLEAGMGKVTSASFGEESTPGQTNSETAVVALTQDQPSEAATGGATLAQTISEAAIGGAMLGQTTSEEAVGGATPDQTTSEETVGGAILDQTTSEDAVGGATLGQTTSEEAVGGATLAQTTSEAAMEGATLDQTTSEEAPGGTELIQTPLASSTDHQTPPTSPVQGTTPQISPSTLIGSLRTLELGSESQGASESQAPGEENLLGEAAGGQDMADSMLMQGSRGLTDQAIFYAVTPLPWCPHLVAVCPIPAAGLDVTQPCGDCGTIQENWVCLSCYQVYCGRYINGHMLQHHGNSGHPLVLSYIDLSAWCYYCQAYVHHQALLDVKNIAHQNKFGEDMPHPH
Procedure: (§1) Recombinant HDAC1 and HDAC6 are used to evaluate the selective inhibitory potency of each compound. Cell based assays: Normal cells (Human Foreskin Fibroblast cells), LNCaP (human prostate cancer cells), MCF-7 (human breast cancer cells, A549 (human adenocarcinoma of lung cells) and ARP-1 (human multiple myeloma cells) are used in these assays. Cells were cultured for up to 72 hr without and with the potential HDAC6-selective inhibitor. SAHA was used as a control. Cell number and cell viability were determined by enumeration. Proteins were extracted from cells and assayed for accumulation of acetylated tubulin and acetylated histones. All methods are described in Namdar et al., PNAS, 2010, 107:20003-8. In vivo animal studies: Potential HDAC6 inhibitor compounds are further assayed by administration to mice for up to 5 days with daily injections. Animals are sacrificed and tissues are analyzed for accumulation of acetylated tubulin and acetylated histones.

acetylated alpha-tubulin = assay: Accumulation of acetylated alpha-tubulin in LNCaP cells (blot); format: cell-based, human; settings: for identified as HDAC6-selective inhibitor: on the basis of accumulation of acetylated tubulin without accumulation of acetylated histones
Excerpt: (§2) FIG. 2. Blot showing accumulation of acetylated alpha-tubulin and acetylated histone H3 in LNCaP cells cultured with compound 6. GADPH used as loading control.
as §1

acetylated histone H3 = assay: Accumulation of acetylated histone H3 in LNCaP cells (blot); format: cell-based, human; settings: FIG. 2
Excerpt: as §2, §1

LNCaP cells [1] = assay: Cell growth assay in LNCaP cells; format: cell-based, human; settings: FIG. 3
Procedure: FIG. 3. Cell growth assay data in LNCaP cells with compound 6.
as §1

LNCaP cells [2] = assay: Cell viability assay in LNCaP cells; format: cell-based
Procedure: FIG. 4. Cell viability assay data in LNCaP cells with compound 6.
as §1

known human HDACs = settings: background statement; cited from earlier work
[3] = target: T2, C-terminal catalytic domain of HDAC6 (Homo sapiens, UniProt Q9UBN7); settings: Haggarty et al. (6); cited from earlier work
T2 sequence (Q9UBN7 1-1215): T1 sequence (Q9UBN7 1-1215)

microtubules = settings: Haggarty et al. (6); cited from earlier work
cell motility = settings: Haggarty et al. (6); cited from earlier work

SMILES: O=C(NO)c1ccc(CC(=O)N(CCO)c2ccccc2)cc1 [Compound 6, N-hydroxy-4-(2-((2-hydroxyethyl)(phenyl)amino)-2-oxoethyl) benzamide]
- HDAC inhibitor selectivity for HDAC6 relative to HDAC1 (HDAC6): selective for HDAC6 relative to HDAC1
- levels of tubulin acetylation (acetylated alpha-tubulin; LNCaP cells, FIG. 2): significant levels of tubulin acylation were present
- levels of tubulin acetylation reached in the absence of histone acetylation, compared with tubacin (acetylated alpha-tubulin; in the absence of histone acetylation): greater than selective levels with tubacin
- identified as HDAC6-selective inhibitor (acetylated alpha-tubulin): HDAC6-selective inhibitors
- induction of H3 acetylation (acetylated histone H3): without induction of H3 acetylation
- cell number (LNCaP cells [1]): inhibits cell number
- cell viability (LNCaP cells [2]; FIG. 4): does not decrease cell viability
- death of LNCaP cells (LNCaP cells [2]; concentrations as high as 32 μM): no detectable death of LNCaP cells

SMILES: O=C(NO)c1ccc(CC(=O)N(CCO)c2cccc3cccnc23)cc1 [Compound 14, N-hydroxy-4-(2-((2-hydroxyethyl)(quinolin-8-yl)amino)-2-oxoethyl) benzamide]
- HDAC inhibitor selectivity for HDAC6 relative to HDAC1 (HDAC6): selective for HDAC6 relative to HDAC1
- identified as HDAC6-selective inhibitor (acetylated alpha-tubulin): HDAC6-selective inhibitors

SMILES: O=C(/C=C/C(=O)Nc1ccc(CC(=O)N(CCO)c2ccccc2)cc1)NO [Compound 21]
- HDAC inhibitor selectivity for HDAC6 relative to HDAC1 (HDAC6): selective for HDAC6 relative to HDAC1

SMILES: O=C(NO)Nc1ccc(CC(=O)N(CCO)c2ccccc2)cc1 [Compound 24]
- HDAC inhibitor selectivity for HDAC6 relative to HDAC1 (HDAC6): selective for HDAC6 relative to HDAC1

SMILES: O=C(NO)C(=O)Nc1ccc(CC(=O)N(CCO)c2ccccc2)cc1 [Compound 26]
- HDAC inhibitor selectivity for HDAC6 relative to HDAC1 (HDAC6): selective for HDAC6 relative to HDAC1

SMILES: O=C(NO)c1ccc(NCC(=O)N(CCO)c2ccccc2)cc1 [Compound 27]
- HDAC inhibitor selectivity for HDAC6 relative to HDAC1 (HDAC6): selective for HDAC6 relative to HDAC1

SMILES: O=C(CN(CCO)c1ccccc1)Nc1ccc(C(=O)NO)cc1 [Compound 30]
- HDAC inhibitor selectivity for HDAC6 relative to HDAC1 (HDAC6): selective for HDAC6 relative to HDAC1

SMILES: O=C(CC(=O)Nc1ccc(CC(=O)N(CCO)c2ccccc2)cc1)NO [Compound 31]
- HDAC inhibitor selectivity for HDAC6 relative to HDAC1 (HDAC6): selective for HDAC6 relative to HDAC1

SMILES: O=C(CN(CCO)c1ccccc1)Oc1ccc(C(=O)NO)cc1 [Compound 32]
- HDAC inhibitor selectivity for HDAC6 relative to HDAC1 (HDAC6): selective for HDAC6 relative to HDAC1

SMILES: O=C(NO)c1ccc(C(=O)N(CCO)c2ccccc2)cc1 [Compound 33]
- HDAC inhibitor selectivity for HDAC6 relative to HDAC1 (HDAC6): selective for HDAC6 relative to HDAC1

SMILES: O=C(Cc1ccc(C(=O)N(CCO)c2ccccc2)cc1)NO [Compound 34]
- HDAC inhibitor selectivity for HDAC6 relative to HDAC1 (HDAC6): selective for HDAC6 relative to HDAC1

SMILES: O=C(CCc1ccc(C(=O)N(CCO)c2ccccc2)cc1)NO [Compound 35]
- HDAC inhibitor selectivity for HDAC6 relative to HDAC1 (HDAC6): selective for HDAC6 relative to HDAC1

SMILES: O=C(CCc1ccc(CC(=O)N(CCO)c2ccccc2)cc1)NO [Compound 36]
- HDAC inhibitor selectivity for HDAC6 relative to HDAC1 (HDAC6): selective for HDAC6 relative to HDAC1

SMILES: O=C(NO)c1cccc2c1ccn2CC(=O)N(CCO)c1ccccc1 [Compound 37]
- HDAC inhibitor selectivity for HDAC6 relative to HDAC1 (HDAC6): selective for HDAC6 relative to HDAC1

SMILES: O=C(NO)c1cccc2c1ncn2CC(=O)N(CCO)c1ccccc1 [Compound 43]
- HDAC inhibitor selectivity for HDAC6 relative to HDAC1 (HDAC6): selective for HDAC6 relative to HDAC1

SMILES: O=C(NO)c1cccc(CC(=O)N(CCO)c2ccccc2)c1 [Compound 79, N-hydroxy-3-(2-((2-hydroxyethyl)(phenyl)amino)-2-oxoethyl) benzamide]
- HDAC inhibitor selectivity for HDAC6 relative to HDAC1 (HDAC6): selective for HDAC6 relative to HDAC1

SMILES: O=C(CCCCCCC(=O)Nc1ccccc1)NO [SAHA, suberoylanilide hydroxamic acid, reference compound]
- death of LNCaP cells (LNCaP cells [2]; SAHA control): kills LNCaP cells
- selectivity of inhibitory activity among known human HDACs (known human HDACs): not selective among the known human HDACs

SMILES: O=C(CCCCCCC(=O)Nc1ccc([C@H]2O[C@@H](CSc3nc(-c4ccccc4)c(-c4ccccc4)o3)C[C@@H](c3ccc(CO)cc3)O2)cc1)NO [tubacin]
- inhibition of C-terminal catalytic domain of HDAC6 (α-tubulin deacetylation) [3]: can be inhibited
- stability of microtubules (microtubules): did not affect the stability of microtubules
- cell motility (cell motility): decreased cell motility
